10 compounds from PubChem BioAssay (NCI) can be followed below.

Holding throughout (assay): growth of human tumour cells (NCI), 48 h
The subject of test [1] is EKVX NSCLC.
Test [2] has as its system IGROV1 ovarian.
For test [3], the system named is BT-549 breast.
For test [4], the system named is OVCAR-4 ovarian.
Test [5] concerns NCI-H226 lung.
Test [6] deals with RPMI-8226 leukemia.
Test [7] has as its system MDA-MB-231 breast.
Test [8] has as its system T-47D breast.
Test [9] deals with NCI/ADR-RES ovarian.
The subject of test [10] is COLO 205 colon.
The test system of test [11] is SF-539 CNS.
For test [12], the system named is A549 NSCLC.
For test [13], the system named is 786-0 renal.
Test [14] relates to SF-295 CNS.
The test system of test [15] is LOX IMVI melanoma.

SMILES strings stand for the structures.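 In this assay, cells in 96-well plates receive the compound at five concentrations for 48 hours. Endpoints are linearly interpolated between the surrounding concentrations. Definition used: TGI = concentration required for complete inhibition of growth.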

Take `O=C(NCCCCNCCCNC(=O)C(F)(F)F)C(F)(F)F`: the TGI in test [1], in [2], in test [3], in [4], in test [5] and in test [6] was more than 100 µM in each case. The TGI in test [7], in test [8], in [9], in [10], in [11] and in test [12] was more than 100 µM each time. In addition, the TGI in [13] and in test [14] was more than 100 µM each time.

In the case of `COc1ccc(/C=N/n2c(Cc3ccc(Cl)cc3)n[nH]c2=O)cc1`, the TGI in [1] is more than 100 µM; in [2] it was 48 µM; in [3] it was more than 100 µM; in test [4], more than 100 µM; in test [5], more than 100 µM; in [6] it was more than 100 µM. For the same compound, the TGI in test [7] was 26.6 µM; in test [8], more than 100 µM; in [9], more than 100 µM; in [10] it was more than 100 µM; in test [11] it was more than 100 µM; in test [12] it was more than 100 µM. For the same compound, the TGI in [13] came to 54.6 µM; in [14] it was 49.9 µM.

Regarding `O=C(O)c1cc2c(cc1S(=O)(=O)O)C1C(C3C2C2(Cl)C(Cl)=C(Cl)C3(Cl)C2(Cl)Cl)C2(Cl)C(Cl)=C(Cl)C1(Cl)C2(Cl)Cl` (stereo not drawn), the TGI in test [1] was more than 100 µM; in test [2], more than 100 µM; in [3], more than 100 µM; in test [4] it was more than 100 µM; in test [5], 49 µM; in test [6], more than 100 µM. Besides, the TGI in test [7] was 50.9 µM; in test [8] it was more than 100 µM; in [9], more than 100 µM; in test [10], more than 100 µM; in test [11] it was 60.3 µM; in test [12], more than 100 µM. Besides, the TGI in test [13] was more than 100 µM; in [14], 60.2 µM.

Take `COc1ccc(S(=O)Cc2cc(OC)ccc2OC)cc1` (stereo not drawn): the TGI in test [1], in test [2], in [3], in test [4], in test [5] and in test [7] was more than 100 µM in each case. Further, the TGI in test [8], in test [9], in [10], in [11], in test [15] and in test [12] was more than 100 µM in each case. The TGI in test [13] and in test [14] was more than 100 µM each time.

As to `c1ccc(-c2cc(-c3cc(-c4ccccc4)n[nH]3)[nH]n2)cc1`, the TGI in test [1], in [2], in [3], in [4], in test [5] and in test [7] was more than 100 µM throughout. The TGI in [8], in test [9], in [10], in [11], in test [12] and in test [13] was more than 100 µM throughout. This compound also registered a TGI in test [14] of more than 100 µM.

With `Cc1cc2c(cc1Cl)Sc1nnc(C)n1S2(=O)=O`, the TGI in [1] is 34.3 µM; in [2], 29.1 µM; in [3] it was 29.7 µM; in test [4], 27.2 µM; in test [5] it was more than 100 µM; in test [7], 31.4 µM. Moreover, the TGI in test [8] came out at 28.3 µM; in test [9] it was 69.8 µM; in [10] it was 30.7 µM; in [11] it was 36.4 µM; in test [15], 23.6 µM; in test [12] it was 97.2 µM. The figures for the TGI in test [13] and in test [14] were 44.5 µM and 33.8 µM, respectively.

For `Cc1ccc(NNc2cc(=O)[nH]c(=O)[nH]2)cc1Cl`, the TGI was 27.6 µM in [2]; more than 100 µM in [3]; 28.5 µM in test [4]; more than 100 µM in [5]; 49.2 µM in [6]; 29.9 µM in [7]. Further, the TGI in test [8] is 25.1 µM; in test [9], more than 100 µM; in test [10] it was 30.6 µM; in test [11] it was 69.4 µM; in test [15], 18.4 µM; in [12] it was more than 100 µM. The TGI is 28 µM in [13] and more than 100 µM in test [14].

For the compound `COc1ncc(C#CC(=O)c2ccccc2OC)c(OC)n1`, the TGI came to 10.3 µM in test [1]; 3.98 µM in [2]; 5.21 µM in test [3]; 20.7 µM in test [4]; 3.35 µM in test [5]; 9.65 µM in test [6]. In addition, the TGI in test [7] stood at 2.75 µM; in [8] it was 22.9 µM; in test [9], 4.78 µM; in test [10] it was 4.12 µM; in test [15] it was 0.794 µM; in test [12], 19 µM. In addition, the results for the TGI in test [13] and in [14] were 3.69 µM and 39.7 µM, respectively.

As for `OCC1CCCCN1Cc1nc2ccc(Cl)cc2[nH]1` (stereo not drawn), the TGI in test [1], in [2], in [3], in test [4], in test [5] and in test [6] was more than 100 µM in each case. The TGI in [7], in [8], in test [9], in test [10], in test [11] and in [12] was more than 100 µM throughout. Further, the TGI in test [13] and in [14] was more than 100 µM each time.

As to `Cc1ccc(NC(=S)NNC(=O)c2cc(-c3ccccc3)nc3ccccc23)cc1C`, the TGI in test [2] was determined as 63.6 µM; in test [3] it was 44.2 µM; in test [4], 58.2 µM; in test [5], 90.1 µM; in test [6], 59.2 µM; in test [7], 57.7 µM. The TGI in test [8] was determined as 8.41 µM; in [9], 49.1 µM; in test [10], 34.2 µM; in test [11], 40.3 µM; in test [12] it was 43.7 µM; in test [13] it was 33.7 µM. Further, the TGI in test [14] worked out at 29.6 µM.
